# Data: patent US11446287B2, “Compounds and methods for EP300 or CBP modulation and indications therefor” (Opna Immuno-Oncology SA, priority 2019, dated 2022)
# Target: T1, Recombinant human CBP containing the bromodomain (CBP-BD (1043-1159)) (Homo sapiens, UniProt Q92793)
# T1 construct: Recombinant human CBP bromodomain (CBP-BD (1043-1159)); made in house; host or cells: E. coli BL21-CodonPlus (DE3), modified pET vector
# Assay: CBP Alphascreen binding assay
# Settings: read-out: CREBBP (CBP) IC50
# Outline: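 Buffer: 50 mM HEPES pH 7.5, 50 mM NaCl, 0.01% BSA, 0.01% Triton X-100, 2 mM DTT. The signal was normalised to plate controls and fitted with a four-parameter curve to give IC50.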
# T1 sequence (Q92793 1081-1197): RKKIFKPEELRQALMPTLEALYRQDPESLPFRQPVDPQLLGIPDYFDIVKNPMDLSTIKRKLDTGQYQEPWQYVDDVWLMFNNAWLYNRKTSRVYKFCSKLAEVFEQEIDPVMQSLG
row,SMILES,IC50
1,"Cc1noc(C)c1-c1cnc2c(c1)c(-c1cccc(C(=O)O)c1)cn2C(C1CC1)C1CC1 [P-0058, 3-(1-(dicyclopropylmethyl)-5-(3,5-dimethylisoxazol-4-yl)-1H-pyrrolo[2,3-b]pyridin-3-yl)benzoic acid]",0.0001 to 1 µM
2,"Cc1noc(C)c1-c1cnc2c(CC3CCC3)cn(-c3ccc(C(=O)O)cc3OC(F)(F)F)c2c1 [P-0066, 4-(3-(cyclobutylmethyl)-6-(3,5-dimethylisoxazol-4-yl)-1H-pyrrolo[3,2-b]pyridin-1-yl)-3-(trifluoromethoxy)benzoic acid]",0.0001 to 1 µM
3,"Cc1noc(C)c1-c1cnc2c(c1)c(-c1cccc(C(=O)O)c1)cn2Cc1cccc(C(F)(F)F)c1 [P-0063, 3-(5-(3,5-dimethylisoxazol-4-yl)-1-(3-(trifluoromethyl)benzyl)-1H-pyrrolo[2,3-b]pyridin-3-yl)benzoic acid]",0.0001 to 1 µM
4,"Cc1noc(C)c1-c1cnc2c(c1)c(-c1c(F)cc(C(=O)O)cc1F)cn2C(C)c1ccccn1 (stereo not shown) [P-0094, 4-(5-(3,5-dimethylisoxazol-4-yl)-1-(1-(pyridin-2-yl)ethyl)-1H-pyrrolo[2,3-b]pyridin-3-yl)-3,5-difluorobenzoic acid]",0.0001 to 1 µM
5,"Cc1noc(C)c1-c1cnc2c(CC3CC3)cn(-c3ccnc(C(=O)O)c3)c2c1 [P-0065, 4-(3-(cyclopropylmethyl)-6-(3,5-dimethylisoxazol-4-yl)-1H-pyrrolo[3,2-b]pyridin-1-yl)picolinic acid]",0.0001 to 1 µM
6,"Cc1noc(C)c1-c1cnc2c(C(=O)c3cccc(Cl)c3)cn(-c3ccnc(C(=O)O)c3)c2c1 [P-0088, 4-(3-(3-chlorobenzoyl)-6-(3,5-dimethylisoxazol-4-yl)-1H-pyrrolo[3,2-b]pyridin-1-yl)picolinic acid]",0.0001 to 1 µM
7,"Cc1noc(C)c1-c1cnc2c(c1)c(-c1ccc(C(=O)O)cc1OC(F)(F)F)cn2[C@@H](C)c1ccccn1 [P-0070, (S)-4-(5-(3,5-dimethylisoxazol-4-yl)-1-(1-(pyridin-2-yl)ethyl)-1H-pyrrolo[2,3-b]pyridin-3-yl)-3-(trifluoromethoxy)benzoic acid]",0.0001 to 1 µM
8,"Cc1noc(C)c1-c1cnc2c(c1)c(-c1cccc(C(=O)O)c1)cn2Cc1cccc(Cl)c1 [P-0061, 3-(1-(3-chlorobenzyl)-5-(3,5-dimethylisoxazol-4-yl)-1H-pyrrolo[2,3-b]pyridin-3-yl)benzoic acid]",0.0001 to 1 µM
9,"Cc1noc(C)c1-c1cnc2c(c1)c(-c1cccc(S(=O)(=O)NC3CC3)c1)cn2Cc1ccccc1 [P-0083, 3-(1-benzyl-5-(3,5-dimethylisoxazol-4-yl)-1H-pyrrolo[2,3-b]pyridin-3-yl)-N-cyclopropylbenzenesulfonamide]",1 to 8 µM
10,"Cc1noc(C)c1-c1cnc2c(c1)c(C#CC(=O)O)cn2Cc1ccccc1 [P-0069, 3-(1-benzyl-5-(3,5-dimethylisoxazol-4-yl)-1H-pyrrolo[2,3-b]pyridin-3-yl)propiolic acid]",0.0001 to 1 µM
11,"Cc1noc(C)c1-c1cnc2c(CC3CCC3)cn(-c3c(C(=O)O)ccc(Br)c3F)c2c1 [P-0086, 4-bromo-2-(3-(cyclobutylmethyl)-6-(3,5-dimethylisoxazol-4-yl)-1H-pyrrolo[3,2-b]pyridin-1-yl)-3-fluorobenzoic acid]",0.0001 to 1 µM
12,"CNS(=O)(=O)c1cccc(-c2cn(Cc3ccccc3)c3ncc(-c4c(C)noc4C)cc23)c1 [P-0082, 3-(1-benzyl-5-(3,5-dimethylisoxazol-4-yl)-1H-pyrrolo[2,3-b]pyridin-3-yl)-N-methylbenzenesulfonamide]",8 to 1000 µM
13,"COC(=O)c1ccc(-c2cn(S(=O)(=O)c3ccc(C)cc3)c3ncc(-c4c(C)noc4C)cc23)cc1 [P-0005, methyl 4-(5-(3,5-dimethylisoxazol-4-yl)-1-tosyl-1H-pyrrolo[2,3-b]pyridin-3-yl)benzoate]",8 to 1000 µM
14,"Cc1noc(C)c1-c1cnc2c(c1)c(-c1cccc(C(=O)O)c1)cn2Cc1cccc(OC(F)(F)F)c1 [P-0059, 3-(5-(3,5-dimethylisoxazol-4-yl)-1-(3-(trifluoromethoxy)benzyl)-1H-pyrrolo[2,3-b]pyridin-3-yl)benzoic acid]",0.0001 to 1 µM
15,"Cc1noc(C)c1-c1cnc2c(Cc3ccccc3Cl)cn(-c3ccnc(C(=O)O)c3)c2c1 [P-0091, 4-(3-(2-chlorobenzyl)-6-(3,5-dimethylisoxazol-4-yl)-1H-pyrrolo[3,2-b]pyridin-1-yl)picolinic acid]",0.0001 to 1 µM
16,"Cc1noc(C)c1-c1cnc2c(c1)c(-c1ccnc(C(=O)O)c1)cn2S(=O)(=O)c1ccccc1 [P-0055, 4-(5-(3,5-dimethylisoxazol-4-yl)-1-(phenylsulfonyl)-1H-pyrrolo[2,3-b]pyridin-3-yl)picolinic acid]",0.0001 to 1 µM
17,"Cc1noc(C)c1-c1cnc2c(CC3CCC3)cn(-c3c(Cl)cc(C(=O)O)cc3Cl)c2c1 [P-0074, 3,5-dichloro-4-(3-(cyclobutylmethyl)-6-(3,5-dimethylisoxazol-4-yl)-1H-pyrrolo[3,2-b]pyridin-1-yl)benzoic acid]",0.0001 to 1 µM
18,"Cc1noc(C)c1-c1cnc2c(c1)c(-c1ccccc1)cn2C(c1ccccn1)C1CCCC1 (stereo not shown) [P-0003, 4-(1-(cyclopentyl(pyridin-2-yl)methyl)-3-phenyl-1H-pyrrolo[2,3-b]pyridin-5-yl)-3,5-dimethylisoxazole]",8 to 1000 µM
19,"Cc1noc(C)c1-c1cnc2c(c1)c(-c1cccc(C(=O)O)c1)cn2Cc1cccc(F)c1 [P-0060, 3-(5-(3,5-dimethylisoxazol-4-yl)-1-(3-fluorobenzyl)-1H-pyrrolo[2,3-b]pyridin-3-yl)benzoic acid]",0.0001 to 1 µM
20,"Cc1noc(C)c1-c1cnc2c(c1)c(-c1ccc(C(=O)O)cc1)cn2C(c1ccccn1)C1CCCC1 (stereo not shown) [P-0002, 4-(1-(cyclopentyl(pyridin-2-yl)methyl)-5-(3,5-dimethylisoxazol-4-yl)-1H-pyrrolo[2,3-b]pyridin-3-yl)benzoic acid]",0.0001 to 1 µM
21,"COc1cccc(Cn2cc(-c3ccnc(C(=O)O)c3)c3cc(-c4c(C)noc4C)cnc32)c1 [P-0057, 4-(5-(3,5-dimethylisoxazol-4-yl)-1-(3-methoxybenzyl)-1H-pyrrolo[2,3-b]pyridin-3-yl)picolinic acid]",0.0001 to 1 µM
22,"Cc1cc(C(=O)O)cnc1-n1cc(CC2CCC2)c2ncc(-c3c(C)noc3C)cc21 [P-0075, 6-(3-(cyclobutylmethyl)-6-(3,5-dimethylisoxazol-4-yl)-1H-pyrrolo[3,2-b]pyridin-1-yl)-5-methylnicotinic acid]",0.0001 to 1 µM
